Numbers after ± are expanded uncertainties.
Conditions: Liquid, Closed cell (Static) method

SMILES | vapor or sublimation pressure (243.15 K) [kPa] | vapor or sublimation pressure (248.15 K) [kPa] | vapor or sublimation pressure (253.15 K) [kPa] | vapor or sublimation pressure (258.15 K) [kPa] | vapor or sublimation pressure (263.15 K) [kPa] | vapor or sublimation pressure (268.15 K) [kPa] | vapor or sublimation pressure (273.15 K) [kPa] | vapor or sublimation pressure (278.15 K) [kPa] | vapor or sublimation pressure (283.15 K) [kPa] | vapor or sublimation pressure (288.15 K) [kPa] | vapor or sublimation pressure (293.15 K) [kPa]
FCC(F)(F)F [1,1,1,2-tetrafluoroethane] | 84.5 ± 1.6 | 106.4 ± 1.6 | 132.7 ± 1.6 | 163.9 ± 1.6 | 200.6 ± 1.6 | 243.3 ± 1.6 | 292.7 ± 1.7 | 349.6 ± 1.7 | 414.3 ± 1.7 | 488.2 ± 1.8 | 570.7 ± 1.8
N [ammonia] | 119.7 ± 1.6 | 151.7 ± 1.6 | 190.2 ± 1.6 | 236.4 ± 1.6 | 290.7 ± 1.7 | 354.8 ± 1.7 | 429.3 ± 1.7 | 515.5 ± 1.8 | 615.1 ± 1.8 | 728.5 ± 1.9 | 857.1 ± 2

Source: the NIST ThermoML archive (doi:10.1016/j.jct.2017.01.019)
